Counter-ions that a name gives are not always drawn. Like-named read-outs stand apart in the source and are kept apart here.
What was measured:
[1] = tested on: EHV-4 405/76 reference strain; experiment: RTCA; assay type: cell-based, Equid herpesvirus 4; details: area under normalized Cell Index curves, 0-120 hpi, EHV-4-infected E. Derm cells
[2] = tested on: EHV-4 405/76 reference strain; details: for Si (CC50/EC50, RTCA): ratio of CC50 to EC50 obtained by RTCA; for CIT50 increase: RTCA, EHV-4-infected E. Derm cells
[3] = tested on: EHV-4 405/76 reference strain; details: ratio of CC50 to EC50 obtained by qPCR
[4] = Cytotoxicity by CellTiter-Glo; details: horse, E. Derm cells
[5] = Cytotoxicity by impedance using RTCA; details: horse, E. Derm cells
[6] = tested on: EHV-4 405/76 reference strain; experiment: microbe, parasite or virus in culture
[7] = tested on: EHV-4 405/76 reference strain; experiment: microbe, parasite or virus in culture; remark: listed apart in the source
mice = details: mouse, in vivo; cited from earlier work
in vitro [8] = details: horse
in vitro [9] = details: horse; remark: listed apart in the source
[10] = in vivo; cited from earlier work
[11] = Equid alphaherpesvirus 4, read-out: RTCA EC50 (µM ± S.D)
[12] = Equid alphaherpesvirus 4, read-out: RTCA EC50 (µg/mL ± S.D)
[13] = Equid alphaherpesvirus 4, read-out: qPCR EC50 (µM ± S.D)
[14] = Equid alphaherpesvirus 4, read-out: qPCR EC50 (µg/mL ± S.D)

Row | Structure (SMILES) | AUCn ([1]; 0.4 µM) | AUCn ([1]; 2 µM) | AUCn ([1]; 10 µM) | AUCn ([1]; 50 µM) | Si (CC50/EC50, RTCA) [2] | SI (CC50 CellTiter-Glo/EC50 qPCR) [3] | CC50 [4] [µM] | CC50 [5] [µM] | EC50 [6, 11] [µM] | EC50 [6, 12] [µg/mL] | EC50 [7, 13] [µM] | EC50 [7, 14] [µg/mL] | CIT50 increase ([2]; 0.78 µM) [h] | CIT50 increase ([2]; 1.56 µM) [h] | toxic concentration (mice) [µM] | CC50 (in vitro [8]) [µM] | CC50 (in vitro [9]) [µM] | improvement of the bioavailability of ganciclovir by oral valganciclovir [10] [%]
1 | Cc1nc(N(C)C(=O)Cc2ccc(-c3ccccn3)cc2)sc1S(N)(=O)=O [BAY 57-1293, pritelivir] | 27.43 | 27.62 | 44.70 | 145.59 | >2.81 | >15.11 | > 50 | > 50 | 17.8 ± 1.2 | 7.15 ± 0.48 | 3.31 ± 0.89 | 1.33 ± 0.36 |  |  |  |  |  | 
2 | Nc1ncn([C@H]2C[C@H](O)[C@@H](CO)O2)c(=O)n1 [Decitabine] | 73.51 | 93.80 | 120.54 | 128.21 | >43.10 | >178.57 | > 50 | > 50 | 1.16 ± 0.31 | 0.26 ± 0.07 | 0.28 ± 0.05 | 0.06 ± 0.01 | 25.66 ± 10.74 | 30.13 ± 15.34 | ~25 |  |  | 
3 | CC(C)[C@H](N)C(=O)OCC(CO)OCn1cnc2c(=O)nc(N)[nH]c21 (stereo partly shown) [Valganciclovir hydrochloride] | 33.79 | 42.41 | 75.80 | 145.98 | >5.24 | >13.89 |  |  | 9.55 ± 2.81 | 3.38 ± 1 | 3.6 ± 1.02 | 1.28 ± 0.36 |  |  |  | > 50 | > 50 | 41 ± 20

Reference: paper PMC11125953 (Viruses, 2024)
